In the oligonucleotide strings, read from the 5' end, every base follows the letter of its sugar. An asterisk marks phosphorothioate; unmarked linkages are phosphodiester. Other units and linkages are bracketed, terminal groups are in braces. A string of capitals states the bases alone. e = 2'-O-(2-methoxyethyl) (MOE); [5mC] = 5-methylcytosine; d = 2'-deoxy (DNA)
Experiments:
[1] = system: mouse apolipoprotein B mRNA; assay: High fat fed mice (Example 65): mouse apolipoprotein B mRNA and serum cholesterol levels; format: in vivo
Experimental: (§1) Male C57Bl/6 mice were divided into the following groups, consisting of 5 animals each: (1) mice on a lean diet, injected with saline (lean control); (2) mice on a high fat diet; (3) mice on a high fat diet injected with 50 mg/kg of the control oligonucleotide 141923 (SEQ ID NO: 858); (4) mice on a high fat diet given 20 mg/kg atorvastatin calcium (Lipitor®, Pfizer Inc.); (5) mice on a high fat diet injected with 10, 25 or 50 mg/kg ISIS 147764 (SEQ ID NO: 109). Saline and oligonucleotide treatments were administered intraperitoneally twice weekly for 6 weeks. Atorvastatin was administered daily for 6 weeks. At study termination, liver samples were isolated from each animal and RNA was isolated for Northern blot qualitative assessment, DNA microarray and quantitative real-time PCR. Northern blot assessment and quantitative real-time PCR were performed as described by other examples herein.
(§2) Mouse apolipoprotein B mRNA and serum cholesterol levels, measured as described herein, were evaluated to confirm antisense inhibition by ISIS 147764 and ISIS 147483. […] The 50 mg/kg dose of ISIS 147483 increased ALT and AST levels.

[2] = High fat fed mice (Example 65): ALT and AST levels; format: in vivo, mouse
Experimental: as §1, §2

apolipoprotein B mRNA [3] = assay: ob/ob mice (Example 50): apolipoprotein B mRNA levels in liver; format: in vivo, mouse; conditions: high fat high cholesterol diet, 50 mg/kg i.p. twice a week, six weeks
Experimental: (§3) Ob/ob mice receiving a high fat, high cholesterol diet (60% kcal fat supplemented with 0.15% cholesterol) were treated with one of several oligonucleotides to evaluate their effect on apolipoprotein B-related phenotypic endpoints in ob/ob mice. After overnight fasting, mice from each group were dosed intraperitoneally twice a week with 50 mg/kg of ISIS 147483 (SEQ ID NO: 79), or 147764 (SEQ ID NO: 109), or the controls ISIS 116847 (SEQ ID NO: 857), or 141923 (SEQ ID NO: 858), or saline for six weeks. At study termination and forty eight hours after the final injections, animals were sacrificed and evaluated for target mRNA levels in liver, cholesterol and triglyceride levels, liver enzyme levels, serum glucose levels, and PTEN levels.

[4] = Lean mice, 6 weeks (Example 66): serum lipids and liver enzymes; format: in vivo, mouse; conditions: serum
Experimental: (§4) The accumulation of lipids in liver tissue was also evaluated in lean mice. Male […] mice (Charles River Laboratories (Wilmington, Mass.) at 6 to 7 weeks of age were maintained on a standard rodent diet and were treated twice weekly with intraperitoneal injections of 25 or 50 mg/kg 147764 (SEQ ID NO: 109) or 147483 (SEQ ID NO: 79) for 6 weeks. Saline treated animals served as controls. Each treatment group was comprised of 4 animals. Animals were sacrificed after the 6 week treatment period, at which point liver tissue and serum were collected.
Total cholesterol, LDL-cholesterol, HDL-cholesterol and triglycerides in serum were measured by routine clinical analysis using an Olympus Clinical Analyzer (Olympus America Inc., Melville, N.Y.). The liver enzymes ALT and […] in serum were also measured using the Olympus Clinical Analyzer.

apolipoprotein B mRNA [5] = assay: Lean mice, 6 weeks (Example 66): apolipoprotein B mRNA; format: in vivo, mouse
Experimental: as §4
Apolipoprotein B mRNA levels were measured by real-time PCR as described by other examples herein. The data, shown in Table 51, represent the average of 4 animals and are presented as inhibition relative to saline treated controls.

[6] = ob/ob mice (Example 50): cholesterol, lipid, triglyceride, liver enzyme and glucose levels; format: in vivo, mouse; conditions: high fat high cholesterol diet, 50 mg/kg i.p. twice a week, six weeks
Experimental: as §3

For “ATGTCAATGCCACATGTCCA (antisense eA*eT*eG*eT*e[5mC]*dA*dA*dT*dG*d[5mC]*d[5mC]*dA*d[5mC]*dA*dT*eG*eT*e[5mC]*e[5mC]*eA) [ISIS 147483]”, the “mouse apolipoprotein B mRNA and serum cholesterol levels” value [1] was “lowered in a dose-dependent manner”, the “ALT and AST levels” value ([2]; 50 mg/kg) was “increased” and the “ALT or AST levels” value ([2]; 10 and 25 mg/kg) was “did not significantly elevate”. For the same sequence, the “apolipoprotein B mRNA levels” value (apolipoprotein B mRNA [3]) was “able to lower”, the HDL-cholesterol ([4]; 25 mg/kg i.p. twice weekly) was 117 mg/dL and the LDL-cholesterol ([4]; 25 mg/kg i.p. twice weekly) was 26 mg/dL. The “Liver Enzymes ALT” value ([4]; 25 mg/kg i.p. twice weekly) was 73 IU/L, the “Liver Enzymes AST” value ([4]; 25 mg/kg i.p. twice weekly) was 78 IU/L and the Total cholesterol ([4]; 25 mg/kg i.p. twice weekly) was 153 mg/dL. For the same sequence, the Triglycerides ([4]; 25 mg/kg i.p. twice weekly) was 138 mg/dL, the HDL-cholesterol ([4]; 50 mg/kg i.p. twice weekly) was 131 mg/dL and the LDL-cholesterol ([4]; 50 mg/kg i.p. twice weekly) was 39 mg/dL. The “Liver Enzymes ALT” value ([4]; 50 mg/kg i.p. twice weekly) was 57 IU/L, the “Liver Enzymes AST” value ([4]; 50 mg/kg i.p. twice weekly) was 72 IU/L and the Total cholesterol ([4]; 50 mg/kg i.p. twice weekly) was 183 mg/dL. For the same sequence, the Triglycerides ([4]; 50 mg/kg i.p. twice weekly) was 127 mg/dL, the “% Inhibition apolipoprotein B mRNA” value (apolipoprotein B mRNA [5]; 25 mg/kg i.p. twice weekly) was 79% and the “% Inhibition apolipoprotein B mRNA” value (apolipoprotein B mRNA [5]; 50 mg/kg i.p. twice weekly) was 91%. The “inhibition of apolipoprotein B mRNA expression” value (apolipoprotein B mRNA [5]; 25 or 50 mg/kg i.p. twice weekly) was “in a dose-dependent manner” and the “glucose, cholesterol, and triglyceride levels” value [6] was “able to lower”.

— US7803930B2, “Antisense modulation of apolipoprotein B-expression” (Isis Pharmaceuticals, Inc., priority 2002, dated 2010)
